Literature values as cited in PMC9959726 (Molecules, 2023).
Where two headings read alike, the source gives them in different places.

What was measured:
[1] = system: α-amylase; conditions: from P. anthriscoides
[2] = for antioxidant activity: compounds obtained from P. saxifraga; for antioxidant property: from P. brachycarpa
[3] = system: BChE; conditions: from P. anthriscoides
[4] = system: α-glycosidase; conditions: for α-glucosidase inhibition: from P. anthriscoides; for α-glucosidase inhibitory: from P. candolleana
[5] = system: AChE; conditions: from P. anthriscoides
[6] = system: CYP-1A2; set-up: method as in PMID 34377680; conditions: for Effect on CYP 1A2: from P. anisum root
[7] = system: DNA; conditions: compounds obtained from P. saxifraga
[8] = system: MCF-7 cells; set-up: method as in PMID 29959054; conditions: from P. haussknechtii fruit; read-out: Cytotoxicity against MCF-7 cell, IC50
[9] = from P. thellungiana
[10] = set-up: method as in PMID 30704124
[11] = system: pestiferous pests; set-up: method as in PMID 29029251, PMID 29029346
[12] = system: BEAS-2B and HepG2 cells; conditions: PM2.5-induced BEAS-2B and HepG2 cells

O=C(O)CC(O)(CC(=O)O)C(=O)O [compound 338, citric acid]
α-amylase inhibition [1]: inhibiting | antioxidant ([2]; from P. anthriscoides): proven antioxidant | BChE inhibition [3]: inhibiting | α-glucosidase inhibition [4]: inhibiting | AChE inhibition [5]: inhibiting

COc1c2ccoc2c(OC)c2oc(=O)ccc12 [compound 274, isopimpinellin]
CYP-1A2 inhibition [6]: inhibitors

CCC(=O)c1ccc(OC)cc1O [compound 49, 1-(2-hydroxy-4-methoxyphenyl)propan1-one]
antioxidant activity [2]: antioxidant activity | DNA protection potential [7]: DNA protection potential

C=CCc1cc2c(c(OC)c1OC)OCO2 [compound 51, dillapiole]
antioxidant activity [2]: antioxidant activity | DNA protection potential [7]: DNA protection potential

CC(=O)C(C)CCC(C)C1CCC2(C)C3CCC4C(C)(C)CCCC4(C)C3CCC12C (stereo not drawn) [compound 297, 24ζ-Methyl-5R-lanosta-25-one]
antioxidant property [2]: antioxidant property

COc1c2ccoc2cc2oc(=O)ccc12 [compound 256, bergapten]
CYP-1A2 inhibition [6]: inhibitors

COc1c2ccoc2c(OC)c2oc(=O)ccc12 [isopimpinellin (274)]
Effect on CYP 1A2 [6]: Inhibitory effects on CYP 1A2

CC(C)=CC(C)(O)C1OC(=O)Cc2oc(C)cc(=O)c21 (stereo not drawn) [Pimpinelol (205)]
IC50 [8]: 1060 nM

CC(=O)[C@H]1CC[C@H]2[C@@H]3CC=C4C[C@@H](O)CC[C@]4(C)[C@H]3CC[C@]12C [compound 298, pregnenolone]
antioxidant property [2]: antioxidant property

O=C(O)C(O)Cc1ccccc1 (stereo not drawn) [compound 337, 3-phenyllactic acid]
α-amylase inhibition [1]: inhibiting | antioxidant ([2]; from P. anthriscoides): proven antioxidant | BChE inhibition [3]: inhibiting | α-glucosidase inhibition [4]: inhibiting | AChE inhibition [5]: inhibiting

COC(=O)/C=C/c1ccccc1O [compound 48, methyl-O-coumarate]
antioxidant activity [2]: antioxidant activity | DNA protection potential [7]: DNA protection potential

CC[C@H](/C=C/[C@@H](C)[C@H]1CC[C@H]2[C@@H]3CC=C4C[C@@H](O)CC[C@]4(C)[C@H]3CC[C@]12C)C(C)C [compound 296, stigmasterol]
antioxidant ([2]; from P. candolleana): effective antioxidant | α-glucosidase inhibitory [4]: α-glucosidase inhibitory

CCOC(c1cc(OC)ccc1O)C(C)O (stereo not drawn) [compound 1, 2-(1′-ethoxy-2′-hydroxy)propyl-4-methoxyphenol]
antihypertensive activity [9]: significant antihypertensive activity

CC[C@H](CC[C@@H](C)[C@H]1CC[C@H]2[C@@H]3CC=C4C[C@@H](O[C@@H]5O[C@H](CO)[C@@H](O)[C@H](O)[C@H]5O)CC[C@]4(C)[C@H]3CC[C@]12C)C(C)C [compound 295, daucosterol]
antioxidant ([2]; from P. candolleana): effective antioxidant | α-glucosidase inhibitory [4]: α-glucosidase inhibitory

CCC(C=CC(C)C1CCC2C3CC=C4CC(OC(C)=O)CCC4(C)C3CCC12C)C(C)C (stereo not drawn) [compound 294, Stigmasta-5, 22-dien-3-olacetate]
antioxidant ([2]; from P. candolleana): effective antioxidant | α-glucosidase inhibitory [4]: α-glucosidase inhibitory

CCOC(c1cc(OC)ccc1OC(=O)C(C)CC)C(C)O (stereo not drawn) [compound 2, 2-(1′-ethoxy-2′-hydroxy)propyl-4-methoxyphenyl-2-methyl-butyrate]
antihypertensive activity [9]: significant antihypertensive activity

COc1ccc(C=CC=O)cc1 [compound 50, 4-methoxycinnamaldehyde]
antioxidant activity [2]: antioxidant activity | DNA protection potential [7]: DNA protection potential

COc1c2ccoc2cc2oc(=O)ccc12 [Bergapten (256)]
Effect on CYP 1A2 [6]: Inhibitory effects on CYP 1A2

umbelliprenin [compound 276]
skin whitening [10]: potential skin-whitening agent

COc1c2occc2cc2ccc(=O)oc12 [methoxsalen (275)]
Effect on CYP 1A2 [6]: Inhibitory effects on CYP 1A2

p-anisaldehyde [compound 47]
antioxidant activity [2]: antioxidant activity | reproduction of pests [11]: inhibiting the reproduction of pests | DNA protection potential [7]: DNA protection potential

CC=Cc1ccc(OC)cc1 (stereo in doubt) [compound 40, cis-anethole]
reduction of IL-8 level [12]: 87%
